Results on 19 compounds are retold here after publication PMC3297713 (Journal of Medicinal Chemistry, 2012).

For one test, the target named is full-length human ERβ (Homo sapiens, UniProt Q92731). Nature of the test: 3X-ERE luciferase reporter gene assay in HepG2 cells, ERβ. It is filed as cell-based. A general note: Reporter assays use an easily measured gene product as a stand-in for the process of interest.
Another test addresses T1, full-length human ERα (Homo sapiens, UniProt P03372).
T1 sequence (P03372 1-595): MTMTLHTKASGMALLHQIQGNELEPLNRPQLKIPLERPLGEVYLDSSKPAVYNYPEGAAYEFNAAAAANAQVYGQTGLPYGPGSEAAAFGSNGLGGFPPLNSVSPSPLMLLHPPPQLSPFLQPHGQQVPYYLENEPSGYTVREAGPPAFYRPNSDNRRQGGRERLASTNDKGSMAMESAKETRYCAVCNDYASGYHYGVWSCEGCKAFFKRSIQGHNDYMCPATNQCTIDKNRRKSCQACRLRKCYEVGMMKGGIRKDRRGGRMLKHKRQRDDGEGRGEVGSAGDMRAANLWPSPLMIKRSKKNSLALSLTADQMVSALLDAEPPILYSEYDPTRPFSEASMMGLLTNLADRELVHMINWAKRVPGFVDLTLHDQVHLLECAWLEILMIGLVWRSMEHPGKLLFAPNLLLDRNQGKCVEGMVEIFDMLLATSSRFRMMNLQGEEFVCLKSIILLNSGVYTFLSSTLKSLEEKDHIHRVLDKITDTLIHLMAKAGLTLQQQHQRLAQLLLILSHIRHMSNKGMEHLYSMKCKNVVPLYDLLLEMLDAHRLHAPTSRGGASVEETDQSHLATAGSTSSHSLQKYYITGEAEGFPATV
Nature of the test: 3X-ERE luciferase reporter gene assay in HepG2 cells, ERα. It is filed as cell-based.

full-length human ERβ, sequence (Q92731 whole entry): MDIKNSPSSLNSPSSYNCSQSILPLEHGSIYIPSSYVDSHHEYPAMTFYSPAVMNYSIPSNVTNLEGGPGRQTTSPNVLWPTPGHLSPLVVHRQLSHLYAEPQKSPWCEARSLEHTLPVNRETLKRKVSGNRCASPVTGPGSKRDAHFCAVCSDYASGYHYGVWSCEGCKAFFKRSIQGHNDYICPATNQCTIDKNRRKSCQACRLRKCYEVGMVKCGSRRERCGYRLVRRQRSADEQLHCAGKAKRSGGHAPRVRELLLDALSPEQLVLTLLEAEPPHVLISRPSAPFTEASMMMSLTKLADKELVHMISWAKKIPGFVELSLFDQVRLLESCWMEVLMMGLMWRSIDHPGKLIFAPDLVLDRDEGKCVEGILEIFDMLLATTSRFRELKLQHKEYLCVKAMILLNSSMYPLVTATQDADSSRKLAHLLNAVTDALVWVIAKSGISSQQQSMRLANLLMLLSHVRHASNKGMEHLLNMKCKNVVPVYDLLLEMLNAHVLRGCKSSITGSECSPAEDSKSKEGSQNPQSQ

Turning to `Cc1cc(C2=C(c3ccc(O)c(C)c3)[C@H]3[C@@H](S(=O)(=O)Oc4ccccc4)C[C@@H]2[S+]3[O-])ccc1O` (relative stereo) [Compound 12a], the half-maximal effective concentration (EC50) – broadly, the midpoint of the concentration-response curve – on full-length human ERβ is over 10 µM.

Turning to `COc1ccc(OS(=O)(=O)[C@H]2C[C@H]3C(c4ccc(O)c(C)c4)=C(c4ccc(O)c(C)c4)[C@@H]2[S+]3[O-])cc1` (relative stereo) [Compound 12b], the half-maximal effective concentration (EC50) at full-length human ERβ was over 10 µM.

At full-length human ERβ, `COc1ccc(OS(=O)(=O)[C@H]2C[C@H]3C(c4ccc(O)cc4C)=C(c4ccc(O)cc4C)[C@@H]2[S+]3[O-])cc1` (relative stereo) [Compound 11b] showed an EC50 of over 10 µM.

`O=S(=O)(Oc1ccccc1)[C@H]1C[C@H]2C(c3ccc(O)cc3)=C(c3ccc(O)cc3)[C@@H]1[S+]2[O-]` (relative stereo) [Compound 10a]: the “ERα functional profile (in words)” value at full-length human ERα is given as “lacks ERα antagonist activity”. For the same compound, at full-length human ERβ, the concentration giving a half-maximal response (EC50) was over 10 µM and the “ERβ agonist activity (in words)” value is given as “do not activate ERβ”.

Compound `Cc1cc(O)ccc1C1=C(c2ccc(O)cc2C)[C@H]2[C@@H](S(=O)(=O)Oc3ccc(Cl)cc3)C[C@@H]1[S+]2[O-]` (relative stereo) [Compound 11g] came in with a half-maximal effective concentration (EC50) at full-length human ERβ of over 10 µM.

With `COc1ccc(OS(=O)(=O)[C@H]2C[C@H]3C(c4ccc(O)cc4)=C(c4ccc(O)cc4)[C@@H]2[S+]3[O-])cc1` (relative stereo) [Compound 10b], the EC50 on full-length human ERα and on full-length human ERβ was over 10 µM each time.

Take `Cc1cc(O)ccc1C1=C(c2ccc(O)cc2C)[C@H]2[C@@H](S(=O)(=O)Oc3cccc4ccccc34)C[C@@H]1[S+]2[O-]` (relative stereo) [Compound 11j]: the EC50 on full-length human ERβ was over 10 µM.

Consider `Cc1cc(C2=C(c3ccc(O)c(C)c3)[C@H]3[C@@H](S(=O)(=O)Oc4ccccc4Br)C[C@@H]2[S+]3[O-])ccc1O` (relative stereo) [Compound 12e], for which, at full-length human ERβ, the EC50 was over 10 µM.

The compound `Cc1cc(C2=C(c3ccc(O)c(C)c3)[C@H]3[C@@H](S(=O)(=O)Oc4cccc5ccccc45)C[C@@H]2[S+]3[O-])ccc1O` (relative stereo) [Compound 12f] gave an EC50 on full-length human ERβ of over 10 µM.

Turning to `CCOC(=O)[C@@H]1[C@H](C(=O)OCC)[C@@H]2C(c3ccc(O)cc3)=C(c3ccc(O)cc3)[C@H]1[S+]2[O-]` (relative stereo) [Compound 10e], the EC50 at full-length human ERα and at full-length human ERβ was over 10 µM throughout.

In turn, `O=S(=O)(Oc1ccc(O)cc1)[C@H]1C[C@H]2C(c3ccc(O)cc3)=C(c3ccc(O)cc3)[C@@H]1[S+]2[O-]` (relative stereo) [Compound 10c] gave a 50% effective concentration (EC50) at full-length human ERβ of over 10 µM.

`Cc1cc(C2=C(c3ccc(O)c(C)c3)[C@H]3[C@@H](S(=O)(=O)Oc4ccccc4F)C[C@@H]2[S+]3[O-])ccc1O` (relative stereo) [Compound 12c] returned an EC50 at full-length human ERβ of over 10 µM.

Take `CCOC(=O)[C@@H]1[C@H](C(=O)OCC)[C@@H]2C(c3ccc(O)c(C)c3)=C(c3ccc(O)c(C)c3)[C@H]1[S+]2[O-]` (relative stereo) [Compound 12i]: the concentration giving a half-maximal response (EC50) on full-length human ERα and on full-length human ERβ was over 10 µM each time.

`Cc1cc(O)ccc1C1=C(c2ccc(O)cc2C)[C@H]2[C@@H](S(=O)(=O)Oc3ccc(F)cc3)C[C@@H]1[S+]2[O-]` (relative stereo) [Compound 11f] registered a concentration giving a half-maximal response (EC50) on full-length human ERβ of over 10 µM.

`Cc1ccc(C2=C(c3ccc(C)cc3)[C@H]3[C@@H](S(=O)(=O)Oc4ccc(O)cc4)C[C@@H]2[S+]3[O-])cc1` (relative stereo) [Compound 14] had a 50% effective concentration (EC50) at full-length human ERβ of over 10 µM.

`Cc1cc(O)ccc1C1=C(c2ccc(O)cc2C)[C@H]2[C@@H](S(=O)(=O)Oc3ccccc3F)C[C@@H]1[S+]2[O-]` (relative stereo) [Compound 11c] came in with an EC50 at full-length human ERβ of over 10 µM.

For the compound `O=S(=O)(Oc1ccc(O)cc1)[C@H]1C[C@H]2C(c3ccccc3)=C(c3ccccc3)[C@@H]1[S+]2[O-]` (relative stereo) [Compound 13], the EC50 at full-length human ERα and on full-length human ERβ was over 10 µM each time.

For the compound `Cc1cc(O)ccc1C1=C(c2ccc(O)cc2C)[C@H]2[C@@H](S(=O)(=O)Oc3ccccc3Br)C[C@@H]1[S+]2[O-]` (relative stereo) [Compound 11e], the EC50 at full-length human ERβ was over 10 µM.

Take `Cc1cc(C2=C(c3ccc(O)c(C)c3)[C@H]3[C@@H](S(=O)(=O)Oc4ccccc4Cl)C[C@@H]2[S+]3[O-])ccc1O` (relative stereo) [Compound 12d]: the half-maximal effective concentration (EC50) on full-length human ERβ was over 10 µM.
